Data taken from patent publication US20170334899A1, “AMINO-SUBSTITUTED ISOTHIAZOLES” (Bayer Pharma Aktiengesellschaft, priority 2014, published 2017).

Experiments:
[1] = test system: human cervical tumor cell line HeLa (ATCC CCL-2); assay: SAC-Formation - Nocodazole-Induced Assay; type: cell-based; conditions: Homo sapiens, HeLa, 24 h, HeLa cells, nocodazole 0.1 μg/ml together with test compound, decrease of mitotic cells (phospho-histone H3 Ser10)
Summary of the method: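 HeLa cells, plated overnight, were treated 24 h at 37 °C with nocodazole (0.1 μg/ml final) plus test compound (0.005–20 μM, 0.5% DMSO) added at the same time. After fixation, anti-phospho-histone H3 Ser10 and Hoechst staining gave the mitotic cell fraction by imaging. Values came from four-parameter Hill fits.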

CDK2/CycE = biological target: T1, CDK2/CycE (Homo sapiens, UniProt P24941); assay: CDK2/CycE kinase assay (TR-FRET); type: biochemical; conditions: avg, read-out: CDK2 avg (IC50 [mol/l])
T1 construct: GST; purchased ProQinase GmbH (Freiburg, Germany); host or cells: insect cells (Sf9)
Text: CDK2/CycE -inhibitory activity of compounds of the present invention was quantified employing the CDK2/CycE TR-FRET assay as described in the following paragraphs.
Recombinant fusion proteins of GST and human CDK2 and of GST and human CycE, expressed in insect cells (Sf9) and purified by Glutathion-Sepharose affinity chromatography, were purchased from ProQinase GmbH (Freiburg, Germany). As substrate for the kinase reaction biotinylated peptide biotin-Ttds-YISPLKSPYKISEG (C-terminus in amid form) was used which can be purchased e.g. form the company JERINI peptide technologies (Berlin, Germany).
For the assay 50 nl of a 100fold concentrated solution of the test compound in DMSO was pipetted into a black low volume 384we11 microtiter plate (Greiner Bio-One, Frickenhausen, Germany), 2 μl of a solution of CDK2/CycE in aqueous assay buffer [50 mM Tris/HCl pH 8.0, 10 mM MgCl2, 1.0 mM dithiothreitol, 0.1 mM sodium ortho-vanadate, 0.01% (v/v) Nonidet-P40 (Sigma)] were added and the mixture was incubated for 15 min at 22° C. to allow pre-binding of the test compounds to the enzyme before the start of the kinase reaction. Then the kinase reaction was started by the addition of 3 μl of a solution of adenosine-tri-phosphate (ATP, 16.7 μM=>final conc. in the 5 μl assay volume is 10 μM) and substrate (1.25 μM=>final conc. in the 5 μl assay volume is 0.75 μM) in assay buffer and the resulting mixture was incubated for a reaction time of 25 min at 22° C. The concentration of CDK2/CycE was adjusted depending of the activity of the enzyme lot and was chosen appropriate to have the assay in the linear range, typical concentrations were in the range of 130 ng/ml. The reaction was stopped by the addition of 5 μl of a solution of TR-FRET detection reagents (0.2 μM streptavidine-XL665 [Cisbio Bioassays, Codolet, France] and 1 nM anti-RB(pSer807/pSer811)-antibody from BD Pharmingen [#558389] and 1.2 nM LANCE EU-W1024 labeled anti-mouse IgG antibody [Perkin-Elmer, product no. AD0077, as an alternative a Terbium-cryptate-labeled anti-mouse IgG antibody from Cisbio Bioassays can be used]) in an aqueous EDTA-solution (100 mM EDTA, 0.2% (w/v) bovine serum albumin in 100 mM HEPES/NaOH pH 7.0).
The resulting mixture was incubated 1 h at 22° C. to allow the formation of complex between the phosphorylated biotinylated peptide and the detection reagents. Subsequently the amount of phosphorylated substrate was evaluated by measurement of the resonance energy transfer from the Eu-chelate to the streptavidine-XL. Therefore, the fluorescence emissions at 620 nm and 665 nm after excitation at 350 nm was measured in a TR-FRET reader, e.g. a Rubystar (BMG Labtechnologies, Offenburg, Germany) or a Viewlux (Perkin-Elmer). The ratio of the emissions at 665 nm and at […] was taken as the measure for the amount of phosphorylated substrate. The data were normalised (enzyme reaction without inhibitor=0% inhibition, all other assay components but no enzyme=100% inhibition).

| Structure (SMILES) | IC50 [1] [nM] | IC50 (CDK2/CycE) [µM] |
| --- | --- | --- |
| Cc1nsc(Nc2cncc(C(F)(F)F)n2)c1C(=O)Nc1ccc(OCC2CCN(C(=O)OC(C)(C)C)C2)nc1 (stereo not shown) [Example 110, tert-Butyl 3-{[(5-{[(3-methyl-5-{[6-(trifluoromethyl)pyrazin-2-yl]amino}-1,2-thiazol-4-yl)carbonyl]amino}pyridin-2-yl)oxy]methyl}pyrrolidine-1-carboxylate] | 35 | ≥ 20 |
| CNS(=O)(=O)c1ccc(NC(=O)c2c(C)nsc2Nc2cnc3ccccc3n2)cc1 [Example 111, 3-Methyl-N-[4-(methylsulfannoyl)phenyl]-5-(quinoxalin-2-ylamino)-1,2-thiazole-4-carboxamide] | 110 | ≥ 20 |
| CC(=O)N(C)CCOc1ccc(NC(=O)c2c(C)nsc2Nc2nc3c(C(F)(F)F)cccc3s2)cn1 [Example 112, N-(6-{2-[Acetyl(methyl)amino]-ethoxy}pyridin-3-yl)-3-methyl-5-{[4-(trifluoromethyl)-1,3-benzothiazol-2-yl]amino}-1,2-thiazole-4-carboxamide] | 230 | ≥ 20 |
| Cc1nsc(Nc2cnc3ccccc3n2)c1C(=O)Nc1cccc(C(=O)N2CCCC2)c1 [Example 113, 3-Methyl-N-[3-(pyrrolidin-1-ylcarbonyl)phenyl]-5-(quinoxalin-2-ylamino)-1,2-thiazole-4-carboxamide] | 210 | ≥ 20 |
| Cc1nsc(Nc2cc(C#N)ccn2)c1C(=O)Nc1cccc(C(=O)N2CCCC2)c1 [Example 114, 5-[(4-Cyanopyridin-2-yl)amino]-3-methyl-N-[3-(pyrrolidin-1-ylcarbonyl)phenyl]-1,2-thiazole-4-carboxamide] | 210 | ≥ 20 |
| Cc1nsc(Nc2cnc3ccccc3n2)c1C(=O)Nc1ccc(S(C)(=O)=O)cc1 [Example 115, 3-Methyl-N-[4-(methylsulfonyl)phenyl]-5-(quinoxalin-2-ylamino)-1,2-thiazole-4-carboxamide] | 1200 | ≥ 20 |
| CCNS(=O)(=O)c1ccc(NC(=O)c2c(C)nsc2Nc2cnc3ccccc3n2)cc1 [Example 116, N-[4-(Ethylsulfamoyl)phenyl]-3-methyl-5-(quinoxalin-2-ylamino)-1,2-thiazole-4-carboxamide] | 810 | ≥ 20 |
| Cc1nsc(Nc2cnc3ccccc3n2)c1C(=O)Nc1ccc(Oc2cccc(C(F)(F)F)c2)nc1 [Example 117, 3-Methyl-5-(quinoxalin-2-ylamino)-N-{6-[3-(trifluoromethyl)phenoxy]pyridin-3-yl}-1,2-thiazole-4-carboxamide] | 190 | ≥ 20 |
| Cc1nsc(Nc2ccc(C#N)cn2)c1C(=O)Nc1ccc(Oc2cccc(C(F)(F)F)c2)nc1 [Example 118, 5-[(5-Cyanopyridin-2-yl)amino]-3-methyl-N-{6-[3-(trifluoromethyl)phenoxy]pyridin-3-yl}-1,2-thiazole-4-carboxamide] | 110 | ≥ 20 |
| Cc1nsc(Nc2cc(C#N)ccn2)c1C(=O)Nc1ccc(Oc2cccnc2)nc1 [Example 119, 5-[(4-Cyanopyridin-2-yl)amino]-3-methyl-N-[6-(pyridin-3-yloxy)pyridin-3-yl]-1,2-thiazole-4-carboxamide] | 4500 | ≥ 20 |
| Cc1nsc(Nc2cnc(C(F)(F)F)cn2)c1C(=O)Nc1ccc(OCC2CCN(CC(F)F)C2)nc1 (stereo not shown) [Example 122, N-(6-{[1-(2,2-difluoroethyl)pyrrolidin-3-yl]methoxy}pyridin-3-yl)-3-methyl-5-{[5-(trifluoromethyl)pyrazin-2-yl]amino}-1,2-thiazole-4-carboxamide] | 39 | ≥ 20 |

Other lines, results leading:

| IC50 [1] [nM] | IC50 (CDK2/CycE) [µM] | Structure (SMILES) |
| --- | --- | --- |
| 12 | ≥ 20 | Cc1nsc(Nc2cnc(C(F)(F)F)cn2)c1C(=O)Nc1ccc(OCC2CCN(CC(F)(F)F)C2)nc1 (stereo not shown) [Example 123, 3-Methyl-N-(6-{[1-(2,2,2-trifluoroethyl)pyrrolidin-3-yl]methoxy}pyridin-3-yl)-5-{[5-(trifluoromethyl)pyrazin-2-yl]amino}-1,2-thiazole-4-carboxamide] |
| 24 | ≥ 20 | Cc1nsc(Nc2cnc(C(F)(F)F)cn2)c1C(=O)Nc1ccc(OCC2CCN(CCC(F)(F)F)C2)nc1 (stereo not shown) [Example 124, 3-methyl-5-{[5-(trifluoromethyl)pyrazin-2-yl]amino}-N-(6-{[1-(3,3,3-trifluoropropyl)pyrrolidin-3-yl]methoxy}pyridin-3-yl)-1,2-thiazole-4-carboxamide] |
| 53 | > 20 | Cc1nsc(Nc2cnc(C(F)(F)F)cn2)c1C(=O)Nc1ccc(OC[C@@H]2CCN(CC(F)F)C2)nc1 [Example 127, N-(6-{[(3R)-1-(2,2-difluoroethyl)pyrrolidin-3-yl]methoxy}pyridin-3-yl)-3-methyl-5-{[5-(trifluoromethyl)pyrazin-2-yl]amino}-1,2-thiazole-4-carboxamide] |
| 15 | > 20 | Cc1nsc(Nc2cnc(C(F)(F)F)cn2)c1C(=O)Nc1ccc(OC[C@@H]2CCN(CC(F)(F)F)C2)nc1 [Example 128, 3-Methyl-N-(6-{[(3R)-1-(2,2,2-trifluoroethyl)pyrrolidin-3-yl]methoxy}pyridin-3-yl)-5-{[5-(trifluoromethyl)pyrazin-2-yl]amino}-1,2-thiazole-4-carboxamide] |
| 32 | > 20 | Cc1nsc(Nc2cnc(C(F)(F)F)cn2)c1C(=O)Nc1ccc(OC[C@@H]2CCN(CCC(F)(F)F)C2)nc1 [Example 129, 3-Methyl-5-{[5-(trifluoromethyl)pyrazin-2-yl]amino}-N-(6-{[(3R)-1-(3,3,3-trifluoropropyl)pyrrolidin-3-yl]methoxy}pyridin-3-yl)-1,2-thiazole-4-carboxamide] |
| 27 | > 20 | Cc1nsc(Nc2cnc(C(F)(F)F)cn2)c1C(=O)Nc1ccc(OC[C@H]2CCN(CC(F)F)C2)nc1 [Example 132, N-(6-{[(3S)-1-(2,2-difluoroethyl)pyrrolidin-3-yl]methoxy}pyridin-3-yl)-3-methyl-5-{[5-(trifluoromethyl)pyrazin-2-yl]amino}-1,2-thiazole-4-carboxamide] |
| 36 | > 20 | Cc1nsc(Nc2cnc(C(F)(F)F)cn2)c1C(=O)Nc1ccc(OC[C@H]2CCN(CCC(F)(F)F)C2)nc1 [Example 134, 3-Methyl-5-{[5-(trifluoromethyl)pyrazin-2-yl]amino}-N-(6-{[(3S)-1-(3,3,3-trifluoropropyl)pyrrolidin-3-yl]methoxy}pyridin-3-yl)-1,2-thiazole-4-carboxamide] |
| 34 | > 20 | Cc1nsc(Nc2cnc(C(F)(F)F)cn2)c1C(=O)Nc1ccc(O[C@@H]2CCN(CC(F)F)C[C@@H]2F)nc1 [Example 137, N-(6-{[(3S,4R)-1-(2,2-difluoroethyl)-3-fluoropiperidin-4-yl]oxy}pyridin-3-yl)-3-methyl-5-{[5-(trifluoromethyl)pyrazin-2-yl]amino}-1,2-thiazole-4-carboxamide] |
| 110 | > 20 | Cc1nsc(Nc2cnc(C(F)(F)F)cn2)c1C(=O)Nc1ccc(O[C@@H]2CCN(CC(F)(F)F)C[C@@H]2F)nc1 [Example 138, N-(6-{[(3S,4R)-3-fluoro-1-(2,2,2-trifluoroethyl)piperidin-4-yl]oxy}pyridin-3-yl)-3-methyl-5-{[5-(trifluoromethyl)pyrazin-2-yl]amino}-1,2-thiazole-4-carboxamide] |
